{
  "source": "patent US11426375B2",
  "about": "“Substituted bisphenyl butanoic ester derivatives as NEP inhibitors” (NOVARTIS AG, priority 2019, dated 2022)",
  "tested_on": "DSS (Dahl Salt Sensitive) rats",
  "assay": "In vivo efficacy study on blood pressure in DSS rats (telemetry; systolic and diastolic pressure)",
  "settings": "for Systolic blood pressure, mean: Compound I-1 50 mg/kg, alone or combined, QD PO",
  "from_the_text": "An in vivo study ascertains the effects on blood pressure in DSS (Dahl Salt Sensitive) rats. The DSS hypertensive rat model is a model of hypertension that is sensitive to dietary salt (NaCl), see for example Rapp (1982) Hypertension 4:753-763 and Hegde et al. BMC Pharmacology 2011, 11 (Suppl 1):P33. Under pentobarbital sodium anesthesia, a DSI (Data Sciences International, St. Paul, Minn.) telemetric probe is implanted. The transducer is inserted into abdominal aorta, and the transmitter is implanted into abdominal cavity. During postoperative recovery period, close observation is performed. Analgesics (Buprenorphine, 0.1-0.5 mg/kg, once per day for 1 day) and preventive antibiotics (Cephradine, 10˜15 mg/kg, ip., once per day for 3 days) are administered on a daily basis. Before the treatment period, all animals are fed with 8% high salt food for about 2 weeks. Test compound is formulated in 0.5% HPC and administered by oral gavage. Five groups of animals are treated as follows: 1. Vehicle, 0.5% HPC, QD, PO, N=5 2. Valsartan, 30 mg/kg, QD, PO, N=5 3. Compound I-1, 50 mg/kg, QD, PO, N=6 4. Compound I-1, 15 mg/kg+Valsartan, 30 mg/kg, QD, PO, N=5 5. Compound I-1, 50 mg/kg+Valsartan, 30 mg/kg, QD, PO, N=5 N is the number of animals. The mean arterial pressure, systolic pressure, diastolic pressure and heart rate after administration for each animal are measured. Interim results obtained before full study completion are shown in Tables 18 and 19 (full cohort of animals beyond day 7 were reduced due to some loss). Mean measurements of the systolic (Table 18) and diastolic (Table 19) blood pressures, for the baseline day prior to first treatment and for treatment days 1 and 7 only, in each treatment group, are shown. Measurements obtained every other hour only are shown.",
  "data": [
    {"smiles": "CCCCC(=O)N(Cc1ccc(-c2ccccc2-c2nnn[nH]2)cc1)[C@H](C(=O)O)C(C)C", "note": "[Valsartan, valsartan]", "values": [
      {"measurement": "Systolic blood pressure, mean", "setting": "Baseline day prior to first treatment, Hour 1, groups Valsartan 30 mg/kg", "value": 157.31},
      {"measurement": "Systolic blood pressure, mean", "setting": "Baseline day prior to first treatment, Hour 3, groups Valsartan 30 mg/kg", "value": 154.77},
      {"measurement": "Systolic blood pressure, mean", "setting": "Baseline day prior to first treatment, Hour 5, groups Valsartan 30 mg/kg", "value": 151.17},
      {"measurement": "Systolic blood pressure, mean", "setting": "Baseline day prior to first treatment, Hour 7, groups Valsartan 30 mg/kg", "value": 154.26},
      {"measurement": "Systolic blood pressure, mean", "setting": "Baseline day prior to first treatment, Hour 9, groups Valsartan 30 mg/kg", "value": 160.88},
      {"measurement": "Systolic blood pressure, mean", "setting": "Baseline day prior to first treatment, Hour 11, groups Valsartan 30 mg/kg", "value": 163.83},
      {"measurement": "Systolic blood pressure, mean", "setting": "Baseline day prior to first treatment, Hour 13, groups Valsartan 30 mg/kg", "value": 164.35},
      {"measurement": "Systolic blood pressure, mean", "setting": "Baseline day prior to first treatment, Hour 15, groups Valsartan 30 mg/kg", "value": 163.94},
      {"measurement": "Systolic blood pressure, mean", "setting": "Baseline day prior to first treatment, Hour 17, groups Valsartan 30 mg/kg", "value": 164.12},
      {"measurement": "Systolic blood pressure, mean", "setting": "Baseline day prior to first treatment, Hour 19, groups Valsartan 30 mg/kg", "value": 166.66},
      {"measurement": "Systolic blood pressure, mean", "setting": "Baseline day prior to first treatment, Hour 21, groups Valsartan 30 mg/kg", "value": 166.05},
      {"measurement": "Systolic blood pressure, mean", "setting": "Baseline day prior to first treatment, Hour 23, groups Valsartan 30 mg/kg", "value": 162.95},
      {"measurement": "effect on blood pressure", "setting": "DSS rats, as compared to animals treated with vehicle alone, interim results", "value": "trend for lower blood pressure"},
      {"measurement": "Systolic blood pressure, mean", "setting": "Dosing day 1, Hour 1, Valsartan 30 mg/kg", "value": 159.22},
      {"measurement": "Systolic blood pressure, mean", "setting": "Dosing day 1, Hour 3, Valsartan 30 mg/kg", "value": 149.24},
      {"measurement": "Systolic blood pressure, mean", "setting": "Dosing day 1, Hour 5, Valsartan 30 mg/kg", "value": 152.75},
      {"measurement": "Systolic blood pressure, mean", "setting": "Dosing day 1, Hour 7, Valsartan 30 mg/kg", "value": 160.54},
      {"measurement": "Systolic blood pressure, mean", "setting": "Dosing day 1, Hour 9, Valsartan 30 mg/kg", "value": 165.09},
      {"measurement": "Systolic blood pressure, mean", "setting": "Dosing day 1, Hour 11, Valsartan 30 mg/kg", "value": 166.16},
      {"measurement": "Systolic blood pressure, mean", "setting": "Dosing day 1, Hour 13, Valsartan 30 mg/kg", "value": 162.84},
      {"measurement": "Systolic blood pressure, mean", "setting": "Dosing day 1, Hour 15, Valsartan 30 mg/kg", "value": 162.88},
      {"measurement": "Systolic blood pressure, mean", "setting": "Dosing day 1, Hour 17, Valsartan 30 mg/kg", "value": 169.80},
      {"measurement": "Systolic blood pressure, mean", "setting": "Dosing day 1, Hour 19, Valsartan 30 mg/kg", "value": 162.27},
      {"measurement": "Systolic blood pressure, mean", "setting": "Dosing day 1, Hour 21, Valsartan 30 mg/kg", "value": 163.01},
      {"measurement": "Systolic blood pressure, mean", "setting": "Dosing day 1, Hour 23, Valsartan 30 mg/kg", "value": 155.05},
      {"measurement": "Systolic blood pressure, mean", "setting": "Dosing day 7, Hour 1, Valsartan 30 mg/kg", "value": 165.60},
      {"measurement": "Systolic blood pressure, mean", "setting": "Dosing day 7, Hour 3, Valsartan 30 mg/kg", "value": 143.04},
      {"measurement": "Systolic blood pressure, mean", "setting": "Dosing day 7, Hour 5, Valsartan 30 mg/kg", "value": 142.52},
      {"measurement": "Systolic blood pressure, mean", "setting": "Dosing day 7, Hour 7, Valsartan 30 mg/kg", "value": 153.17},
      {"measurement": "Systolic blood pressure, mean", "setting": "Dosing day 7, Hour 9, Valsartan 30 mg/kg", "value": 170.26},
      {"measurement": "Systolic blood pressure, mean", "setting": "Dosing day 7, Hour 11, Valsartan 30 mg/kg", "value": 173.95},
      {"measurement": "Systolic blood pressure, mean", "setting": "Dosing day 7, Hour 13, Valsartan 30 mg/kg", "value": 175.24},
      {"measurement": "Systolic blood pressure, mean", "setting": "Dosing day 7, Hour 15, Valsartan 30 mg/kg", "value": 177.02},
      {"measurement": "Systolic blood pressure, mean", "setting": "Dosing day 7, Hour 17, Valsartan 30 mg/kg", "value": 176.02},
      {"measurement": "Systolic blood pressure, mean", "setting": "Dosing day 7, Hour 19, Valsartan 30 mg/kg", "value": 176.83},
      {"measurement": "Systolic blood pressure, mean", "setting": "Dosing day 7, Hour 21, Valsartan 30 mg/kg", "value": 164.22},
      {"measurement": "Systolic blood pressure, mean", "setting": "Dosing day 7, Hour 23, Valsartan 30 mg/kg", "value": 163.41},
      {"measurement": "Diastolic blood pressure, Mean", "setting": "Valsartan 30 mg/kg, Baseline day, Hour 1", "value": 106.03},
      {"measurement": "Diastolic blood pressure, Mean", "setting": "Valsartan 30 mg/kg, Baseline day, Hour 3", "value": 102.82},
      {"measurement": "Diastolic blood pressure, Mean", "setting": "Valsartan 30 mg/kg, Baseline day, Hour 5", "value": 100.19},
      {"measurement": "Diastolic blood pressure, Mean", "setting": "Valsartan 30 mg/kg, Baseline day, Hour 7", "value": 103.02},
      {"measurement": "Diastolic blood pressure, Mean", "setting": "Valsartan 30 mg/kg, Baseline day, Hour 9", "value": 110.48},
      {"measurement": "Diastolic blood pressure, Mean", "setting": "Valsartan 30 mg/kg, Baseline day, Hour 11", "value": 114.29},
      {"measurement": "Diastolic blood pressure, Mean", "setting": "Valsartan 30 mg/kg, Baseline day, Hour 13", "value": 115.22},
      {"measurement": "Diastolic blood pressure, Mean", "setting": "Valsartan 30 mg/kg, Baseline day, Hour 15", "value": 113.98},
      {"measurement": "Diastolic blood pressure, Mean", "setting": "Valsartan 30 mg/kg, Baseline day, Hour 17", "value": 114.14},
      {"measurement": "Diastolic blood pressure, Mean", "setting": "Valsartan 30 mg/kg, Baseline day, Hour 19", "value": 116.35},
      {"measurement": "Diastolic blood pressure, Mean", "setting": "Valsartan 30 mg/kg, Baseline day, Hour 21", "value": 116.78},
      {"measurement": "Diastolic blood pressure, Mean", "setting": "Valsartan 30 mg/kg, Baseline day, Hour 23", "value": 111.79},
      {"measurement": "Diastolic blood pressure, Mean", "setting": "Valsartan 30 mg/kg, Dosing day 1, Hour 1", "value": 107.73},
      {"measurement": "Diastolic blood pressure, Mean", "setting": "Valsartan 30 mg/kg, Dosing day 1, Hour 3", "value": 101.25},
      {"measurement": "Diastolic blood pressure, Mean", "setting": "Valsartan 30 mg/kg, Dosing day 1, Hour 5", "value": 98.63},
      {"measurement": "Diastolic blood pressure, Mean", "setting": "Valsartan 30 mg/kg, Dosing day 1, Hour 7", "value": 100.29},
      {"measurement": "Diastolic blood pressure, Mean", "setting": "Valsartan 30 mg/kg, Dosing day 1, Hour 9", "value": 109.35},
      {"measurement": "Diastolic blood pressure, Mean", "setting": "Valsartan 30 mg/kg, Dosing day 1, Hour 11", "value": 115.04},
      {"measurement": "Diastolic blood pressure, Mean", "setting": "Valsartan 30 mg/kg, Dosing day 1, Hour 13", "value": 116.06},
      {"measurement": "Diastolic blood pressure, Mean", "setting": "Valsartan 30 mg/kg, Dosing day 1, Hour 15", "value": 113.61},
      {"measurement": "Diastolic blood pressure, Mean", "setting": "Valsartan 30 mg/kg, Dosing day 1, Hour 17", "value": 112.82},
      {"measurement": "Diastolic blood pressure, Mean", "setting": "Valsartan 30 mg/kg, Dosing day 1, Hour 19", "value": 119.69},
      {"measurement": "Diastolic blood pressure, Mean", "setting": "Valsartan 30 mg/kg, Dosing day 1, Hour 21", "value": 112.65},
      {"measurement": "Diastolic blood pressure, Mean", "setting": "Valsartan 30 mg/kg, Dosing day 1, Hour 23", "value": 112.26},
      {"measurement": "Diastolic blood pressure, Mean", "setting": "Valsartan 30 mg/kg, Dosing day 7, Hour 1", "value": 113.86},
      {"measurement": "Diastolic blood pressure, Mean", "setting": "Valsartan 30 mg/kg, Dosing day 7, Hour 3", "value": 94.17},
      {"measurement": "Diastolic blood pressure, Mean", "setting": "Valsartan 30 mg/kg, Dosing day 7, Hour 5", "value": 93.33},
      {"measurement": "Diastolic blood pressure, Mean", "setting": "Valsartan 30 mg/kg, Dosing day 7, Hour 7", "value": 102.69},
      {"measurement": "Diastolic blood pressure, Mean", "setting": "Valsartan 30 mg/kg, Dosing day 7, Hour 9", "value": 117.65},
      {"measurement": "Diastolic blood pressure, Mean", "setting": "Valsartan 30 mg/kg, Dosing day 7, Hour 11", "value": 123.73},
      {"measurement": "Diastolic blood pressure, Mean", "setting": "Valsartan 30 mg/kg, Dosing day 7, Hour 13", "value": 125.63},
      {"measurement": "Diastolic blood pressure, Mean", "setting": "Valsartan 30 mg/kg, Dosing day 7, Hour 15", "value": 126.20},
      {"measurement": "Diastolic blood pressure, Mean", "setting": "Valsartan 30 mg/kg, Dosing day 7, Hour 17", "value": 124.23},
      {"measurement": "Diastolic blood pressure, Mean", "setting": "Valsartan 30 mg/kg, Dosing day 7, Hour 19", "value": 127.67},
      {"measurement": "Diastolic blood pressure, Mean", "setting": "Valsartan 30 mg/kg, Dosing day 7, Hour 21", "value": 112.77},
      {"measurement": "Diastolic blood pressure, Mean", "setting": "Valsartan 30 mg/kg, Dosing day 7, Hour 23", "value": 112.12}
    ]}
  ]
}
